Test system: relapsed or refractory, rituximab-naive or -sensitive follicular B-cell NHL
Assay: Treatment free interval, Vc-R vs rituximab study, by biomarker
Format: in vivo, human
Design: Treatment Free Interval, Median: unit not given here
Conditions: for Treatment Free Interval, Evt/N / Treatment Free Interval, Median: IRC Review
Excerpt: Non-Hodgkin lymphoma (NHL) encompasses several unique malignant lymphoid disease entities that vary in clinical behavior, morphologic appearance, immunologic, and molecular phenotype. […] A randomized, open-label, active-controlled, multicenter, multinational, prospective study to compare the efficacy and safety of the combination of bortezomib and rituximab (Vc-R) to single-agent rituximab in subjects who have relapsed or refractory, rituximab-naive or -sensitive follicular B-cell NHL was performed.
Subjects were centrally randomized to Treatment Groups A (Vc-R) or B (rituximab) in a 1:1 ratio taking into account the following stratification factors: • Follicular Lymphoma International Prognostic Index (FLIPI) score (low [0 or 1 factor], intermediate [2 factors], high [≧3 factors]); • Prior rituximab therapy (yes, no); • Time since last dose of anti-lymphoma therapy (≦1 year, >1 year); • Region (United States/Canada, European Union, Rest of World).
The following clinical endpoints were included in the analysis within each treatment group and an overall comparison was made with the biomarker-related endpoints: Progression-free survival, defined as the interval between the date of randomization and the date of progressive disease (PD) or death, whichever is first reported in the ITT population; overall survival; overall response rate (complete response [CR]+CR unconfirmed [CRu]+partial response [PR]); overall CR rate (CR+CRu); duration of response; time to next anti-lymphoma therapy; and treatment free interval.

[1] = 20S % NUCLEAR STAINING 0-20, Female
[2] = 20S % NUCLEAR STAINING 60-70, Male
[3] = 20S % NUCLEAR STAINING 60-70, Prior Rituximab Therapy
[4] = 20S INTENSITY CYTOPLASMIC SIGNAL: ≧3+, European Union
[5] = CD68 OVERALL POSITIVE: 0-25, 2 Prior Lines of Therapy
[6] = CD68 OVERALL POSITIVE: 0-25, >1 year since last anti-lymphoma treatment
[7] = CD68 OVERALL POSITIVE: 0-25, Ann Arbor Stage III
[8] = CD68 OVERALL POSITIVE: 0-25, Ann Arbor Stage IV
[9] = CD68 OVERALL POSITIVE: 0-25, European Union
[10] = CD68 OVERALL POSITIVE: 0-25, Female
[11] = CD68 OVERALL POSITIVE: 0-25, Intermediate FLIPI Score
[12] = CD68 OVERALL POSITIVE: 0-25, Low FLIPI Score
[13] = CD68 OVERALL POSITIVE: 0-25, No High Tumor Burden
[14] = CD68 OVERALL POSITIVE: 0-25, No Prior Rituximab Therapy
[15] = CD68 OVERALL POSITIVE: 0-25, No Subgroup
[16] = CD68 OVERALL POSITIVE: 0-25, Prior Rituximab Therapy
[17] = CD68 OVERALL POSITIVE: 0-25, White
[18] = CD68 OVERALL POSITIVE: 0-25, ≦65 years old
[19] = CD68 OVERALL POSITIVE: >75, Male
[20] = CD68 POSITIVE FOLLICULAR: 0-25, >1 year since last anti-lymphoma treatment
[21] = CD68 POSITIVE FOLLICULAR: 0-25, Ann Arbor Stage III
[22] = CD68 POSITIVE FOLLICULAR: 0-25, Asian
[23] = CD68 POSITIVE FOLLICULAR: 0-25, Female
[24] = CD68 POSITIVE FOLLICULAR: 0-25, No High Tumor Burden
[25] = CD68 POSITIVE FOLLICULAR: 0-25, No Prior Rituximab Therapy
[26] = CD68 POSITIVE FOLLICULAR: 0-25, No Subgroup
[27] = CD68 POSITIVE FOLLICULAR: 0-25, White
[28] = CD68 POSITIVE FOLLICULAR: 0-25, ≦65 years old
[29] = CD68 POSITIVE PERIFOLLICULAR: 0-25, 2 Prior Lines of Therapy
[30] = CD68 POSITIVE PERIFOLLICULAR: 0-25, >1 year since last anti-lymphoma treatment
[31] = CD68 POSITIVE PERIFOLLICULAR: 0-25, Ann Arbor Stage IV
[32] = CD68 POSITIVE PERIFOLLICULAR: 0-25, Female
[33] = CD68 POSITIVE PERIFOLLICULAR: 0-25, Intermediate FLIPI Score
[34] = CD68 POSITIVE PERIFOLLICULAR: 0-25, No High Tumor Burden
[35] = CD68 POSITIVE PERIFOLLICULAR: 0-25, No Prior Rituximab Therapy
[36] = CD68 POSITIVE PERIFOLLICULAR: 0-25, No Subgroup
[37] = CD68 POSITIVE PERIFOLLICULAR: 0-25, White
[38] = CD68 POSITIVE PERIFOLLICULAR: 0-25, ≦65 years old
[39] = CD68 POSITIVE PERIFOLLICULAR: 26-50, Other
[40] = CD68 POSITIVE PERIFOLLICULAR: >75, 1 Prior Line of Therapy
[41] = CD68 POSITIVE PERIFOLLICULAR: >75, European Union
[42] = CD68 POSITIVE PERIFOLLICULAR: >75, ≦65 years old
[43] = P27 % NUCLEI POSITIVE: 0-20, 1 Prior Line of Therapy
[44] = P27 % NUCLEI POSITIVE: 0-20, Ann Arbor Stage III
[45] = P27 % NUCLEI POSITIVE: 0-20, ≦65 years old
[46] = P27 % NUCLEI POSITIVE: 30-50, High Tumor Burden
[47] = P27 SIGNAL INTENSITY: ≦1+, High Tumor Burden
[48] = P27 SIGNAL INTENSITY: ≧2+, 5 Prior Lines of Therapy

rituximab
Treatment Free Interval, Evt/N [1]: 35/61
Treatment Free Interval, Median [1]: 427
Treatment Free Interval, Evt/N [2]: 14/16
Treatment Free Interval, Median [2]: 110
Treatment Free Interval, Evt/N [3]: 17/21
Treatment Free Interval, Median [3]: 190
Treatment Free Interval, Evt/N [4]: 34/52
Treatment Free Interval, Median [4]: 393
duration of treatment free interval (Biomarker positive (PSMB1 P11A heterozygote and CD68 Low)): 10.1 mo
Treatment Free Interval, Evt/N [5]: 6/8
Treatment Free Interval, Median [5]: 80
Treatment Free Interval, Evt/N [6]: 17/26
Treatment Free Interval, Median [6]: 269
Treatment Free Interval, Evt/N [7]: 12/16
Treatment Free Interval, Median [7]: 135
Treatment Free Interval, Evt/N [8]: 15/22
Treatment Free Interval, Median [8]: 293
Treatment Free Interval, Evt/N [9]: 14/22
Treatment Free Interval, Median [9]: 234
Treatment Free Interval, Evt/N [10]: 16/26
Treatment Free Interval, Median [10]: 293
Treatment Free Interval, Evt/N [11]: 7/11
Treatment Free Interval, Median [11]: 343
Treatment Free Interval, Evt/N [12]: 8/10
Treatment Free Interval, Median [12]: 281
Treatment Free Interval, Evt/N [13]: 8/14
Treatment Free Interval, Median [13]: 411
Treatment Free Interval, Evt/N [14]: 12/19
Treatment Free Interval, Median [14]: 393
Treatment Free Interval, Evt/N [15]: 30/44
Treatment Free Interval, Median [15]: 269
Treatment Free Interval, Evt/N [16]: 18/25
Treatment Free Interval, Median [16]: 115
Treatment Free Interval, Evt/N [17]: 24/35
Treatment Free Interval, Median [17]: 269
Treatment Free Interval, Evt/N [18]: 24/34
Treatment Free Interval, Median [18]: 234
Treatment Free Interval, Evt/N (CD68 OVERALL POSITIVE: 51-75, No High Tumor Burden): 10/25
Treatment Free Interval, Evt/N [19]: 8/9
Treatment Free Interval, Median [19]: 272
Treatment Free Interval, Evt/N [20]: 22/34
Treatment Free Interval, Median [20]: 409
Treatment Free Interval, Evt/N [21]: 19/24
Treatment Free Interval, Median [21]: 190
Treatment Free Interval, Evt/N [22]: 5/6
Treatment Free Interval, Median [22]: 148
Treatment Free Interval, Evt/N [23]: 23/37
Treatment Free Interval, Median [23]: 307
Treatment Free Interval, Evt/N [24]: 14/22
Treatment Free Interval, Median [24]: 432
Treatment Free Interval, Evt/N [25]: 23/36
Treatment Free Interval, Median [25]: 344
Treatment Free Interval, Evt/N [26]: 40/60
Treatment Free Interval, Median [26]: 307
Treatment Free Interval, Evt/N [27]: 32/48
Treatment Free Interval, Median [27]: 307
Treatment Free Interval, Evt/N [28]: 33/46
Treatment Free Interval, Median [28]: 190
Treatment Free Interval, Evt/N [29]: 6/8
Treatment Free Interval, Median [29]: 64
Treatment Free Interval, Evt/N [30]: 15/24
Treatment Free Interval, Median [30]: 393
Treatment Free Interval, Evt/N [31]: 11/15
Treatment Free Interval, Median [31]: 234
Treatment Free Interval, Evt/N [32]: 19/28
Treatment Free Interval, Median [32]: 234
Treatment Free Interval, Evt/N [33]: 7/13
Treatment Free Interval, Median [33]: 361
Treatment Free Interval, Evt/N [34]: 8/13
Treatment Free Interval, Median [34]: 361
Treatment Free Interval, Evt/N [35]: 12/18
Treatment Free Interval, Median [35]: 393
Treatment Free Interval, Evt/N [36]: 26/39
Treatment Free Interval, Median [36]: 234
Treatment Free Interval, Evt/N [37]: 19/27
Treatment Free Interval, Median [37]: 361
Treatment Free Interval, Evt/N [38]: 20/31
Treatment Free Interval, Median [38]: 143
Treatment Free Interval, Evt/N [39]: 4/4
Treatment Free Interval, Median [39]: 217
Treatment Free Interval, Evt/N [40]: 15/18
Treatment Free Interval, Median [40]: 297
Treatment Free Interval, Evt/N [41]: 13/17
Treatment Free Interval, Median [41]: 533
Treatment Free Interval, Evt/N [42]: 19/23
Treatment Free Interval, Median [42]: 297
Treatment Free Interval, Evt/N [43]: 19/26
Treatment Free Interval, Median [43]: 293
Treatment Free Interval, Evt/N [44]: 14/16
Treatment Free Interval, Median [44]: 275
Treatment Free Interval, Evt/N [45]: 26/34
Treatment Free Interval, Median [45]: 187
Treatment Free Interval, Evt/N [46]: 17/22
Treatment Free Interval, Median [46]: 280
Treatment Free Interval, Evt/N (P27 % NUCLEI POSITIVE: 60-70, 3 Prior Lines of Therapy): 1/6
Treatment Free Interval, Evt/N [47]: 16/18
Treatment Free Interval, Median [47]: 122
Treatment Free Interval, Evt/N [48]: 5/6
Treatment Free Interval, Median [48]: 88
Treatment Free Interval, Evt/N (P27 SIGNAL INTENSITY: ≧2+, Prior Rituximab Therapy): 60/88

— patent publication US9322066B2, “Predictors for cancer treatment” (priority 2011, dated 2016)
